We go through 16 compounds from US10947242B2, “[1,2,4]triazolo[1,5and#8208;A]pyrimidine compounds as PDE2 inhibitors” (Janssen Pharmaceutica NV, priority 2016, dated 2021).

SMILES strings stand for the structures. Read-outs that look alike come from different tables or passages of the source.

For experiment [1], the target named is T1, Human recombinant PDE2A (hPDE2A) (Homo sapiens, UniProt O00408).
T1 construct: His tag (inferred from metal chelate purification); made in house; host or cells: Sf9 insect cells (baculovirus)
Nature of the experiment: In vitro assay PDE2A (SPA, 3H-cGMP hydrolysis). It counts as biochemical. As to conditions: for Emax: read-out: hPDE2A Emax; for IC50: read-out: hPDE2A pIC50 (converted).

For experiment [2], the target named is T2, Human recombinant PDE3A (hPDE3A) (Homo sapiens, UniProt Q14432).
T2 construct: purchased Scottish Biomedical; host or cells: Sf9 insect cells
Nature of the experiment: In vitro assay PDE3A (SPA, 3H-cAMP hydrolysis).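 As to all read-outs here: the method names PDE3A and the table heading PDE3B.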 As to conditions: for IC50: hPDE3B pIC50, read-out: pIC50 (converted); for Emax: read-out: hPDE3B Emax, read-out: Emax. It counts as biochemical. The gist of the method: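 Radiometric SPA measuring [3H]-cAMP hydrolysis (0.4 μM cAMP, 2.4 μCi/ml) over 60 min at room temperature, in Tris pH 7.8 buffer with MgCl2 and EGTA, 1% DMSO. Enzyme: recombinant human brain PDE3A expressed in Sf9 cells, used as partially purified lysate. Counts compared with enzyme-free blanks and vehicle controls.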

For experiment [3], the target named is T3, Human recombinant PDE10A (hPDE10A) (Homo sapiens, UniProt Q9Y233).
T3 construct: His tag (inferred from metal chelate purification); made in house; host or cells: Sf9 insect cells (baculovirus)
In words: In vitro assay PDE10A, human clone (SPA, 3H-cAMP hydrolysis). Type of experiment: biochemical. The method in brief:
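Hydrolysis of 3H-cAMP (60 nM cAMP, 0.008 μCi tracer) proceeded for 60 min at room temperature, with the product detected by SPA bead scintillation counting. The enzyme was hPDE10A from baculovirus-infected Sf9 cells in Tris pH 7.8 buffer with MgCl2 and EGTA, and compounds were at 1% DMSO final. Blanks lacked enzyme.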

For the next experiment, the target named is T4, PDE2A (Rattus norvegicus, UniProt Q01062).
T4 construct: Twenty μm-thick striatal sections were cut; from tissue; host or cells: rat brain, striatal sections
T4 sequence (Q01062 1-928): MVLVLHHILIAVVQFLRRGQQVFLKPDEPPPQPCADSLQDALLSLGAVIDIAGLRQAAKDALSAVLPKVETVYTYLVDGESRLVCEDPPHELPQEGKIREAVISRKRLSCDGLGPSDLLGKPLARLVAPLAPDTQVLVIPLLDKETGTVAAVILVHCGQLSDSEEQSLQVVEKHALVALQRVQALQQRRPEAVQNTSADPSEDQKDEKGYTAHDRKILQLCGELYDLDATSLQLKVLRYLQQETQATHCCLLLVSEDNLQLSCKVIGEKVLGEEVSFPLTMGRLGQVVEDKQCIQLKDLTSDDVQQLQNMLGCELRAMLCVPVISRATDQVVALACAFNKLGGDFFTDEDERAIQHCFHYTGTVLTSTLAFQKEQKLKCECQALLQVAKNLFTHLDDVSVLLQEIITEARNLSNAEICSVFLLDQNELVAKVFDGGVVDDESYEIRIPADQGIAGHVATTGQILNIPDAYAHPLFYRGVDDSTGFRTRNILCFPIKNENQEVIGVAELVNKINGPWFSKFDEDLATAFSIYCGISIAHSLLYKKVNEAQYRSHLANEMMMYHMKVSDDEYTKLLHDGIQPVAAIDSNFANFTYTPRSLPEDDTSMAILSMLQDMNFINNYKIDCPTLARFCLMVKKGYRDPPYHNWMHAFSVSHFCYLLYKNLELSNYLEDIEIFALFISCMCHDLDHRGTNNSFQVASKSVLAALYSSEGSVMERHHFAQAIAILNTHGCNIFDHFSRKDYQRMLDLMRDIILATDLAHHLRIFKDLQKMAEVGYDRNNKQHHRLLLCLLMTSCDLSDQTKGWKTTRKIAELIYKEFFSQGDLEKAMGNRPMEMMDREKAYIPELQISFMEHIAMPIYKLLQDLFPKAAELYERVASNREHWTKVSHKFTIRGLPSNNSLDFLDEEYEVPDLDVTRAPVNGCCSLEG
In words: PDE2 occupancy by test compounds, ex-vivo autoradiography with [3H]B-17a. Type of experiment: in vivo, Male Wistar rats. Particulars: 10 mg/kg, percentage receptor occupancy, ex-vivo autoradiography, striatum.

Setting [4] is: human clone by default (no (r) mark), read-out: hPDE10A2 or rPDE10A2 Emax.
The mark [5] stands for this setting: human clone by default (no (r) mark), read-out: hPDE10A2 or rPDE10A2 pIC50 (converted).
Where [6] appears, read: human recombinant PDE2A, 10 μM cGMP substrate.
The mark [7] stands for this setting: human clone (h), default, read-out: hPDE10A2 Emax.
[8] abbreviates: human clone (h), default, read-out: hPDE10A2 pIC50 (converted).

T2 sequence (Q14432 whole entry): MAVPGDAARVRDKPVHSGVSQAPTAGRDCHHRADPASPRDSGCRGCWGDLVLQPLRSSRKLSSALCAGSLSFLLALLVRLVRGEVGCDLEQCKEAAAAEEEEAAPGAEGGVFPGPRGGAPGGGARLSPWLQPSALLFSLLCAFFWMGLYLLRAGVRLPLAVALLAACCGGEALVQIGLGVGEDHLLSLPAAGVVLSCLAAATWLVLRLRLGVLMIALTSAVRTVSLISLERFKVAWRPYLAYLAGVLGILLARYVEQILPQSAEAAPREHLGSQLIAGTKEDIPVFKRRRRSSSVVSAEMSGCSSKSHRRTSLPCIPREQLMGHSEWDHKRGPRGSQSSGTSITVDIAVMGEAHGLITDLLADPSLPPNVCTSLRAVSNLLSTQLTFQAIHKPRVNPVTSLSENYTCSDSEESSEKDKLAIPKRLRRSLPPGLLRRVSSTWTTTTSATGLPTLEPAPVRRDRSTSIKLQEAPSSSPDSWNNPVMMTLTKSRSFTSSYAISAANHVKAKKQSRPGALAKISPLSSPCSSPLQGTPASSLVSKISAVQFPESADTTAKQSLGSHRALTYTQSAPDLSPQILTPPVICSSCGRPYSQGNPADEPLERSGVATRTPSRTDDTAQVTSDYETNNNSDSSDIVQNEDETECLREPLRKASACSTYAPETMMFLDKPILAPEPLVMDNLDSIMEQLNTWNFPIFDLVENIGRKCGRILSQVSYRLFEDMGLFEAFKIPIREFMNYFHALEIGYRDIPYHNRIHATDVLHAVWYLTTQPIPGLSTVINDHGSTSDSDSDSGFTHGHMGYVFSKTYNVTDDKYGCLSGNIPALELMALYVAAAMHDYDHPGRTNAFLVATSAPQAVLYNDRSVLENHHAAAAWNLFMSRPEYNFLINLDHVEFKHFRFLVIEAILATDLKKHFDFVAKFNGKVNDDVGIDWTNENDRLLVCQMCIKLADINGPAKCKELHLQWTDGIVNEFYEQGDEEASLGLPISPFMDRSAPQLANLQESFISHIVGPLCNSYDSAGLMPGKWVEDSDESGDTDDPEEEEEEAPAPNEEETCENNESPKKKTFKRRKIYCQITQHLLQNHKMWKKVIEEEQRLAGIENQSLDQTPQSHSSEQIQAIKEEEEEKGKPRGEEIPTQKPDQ
T3 sequence (Q9Y233 267-1055): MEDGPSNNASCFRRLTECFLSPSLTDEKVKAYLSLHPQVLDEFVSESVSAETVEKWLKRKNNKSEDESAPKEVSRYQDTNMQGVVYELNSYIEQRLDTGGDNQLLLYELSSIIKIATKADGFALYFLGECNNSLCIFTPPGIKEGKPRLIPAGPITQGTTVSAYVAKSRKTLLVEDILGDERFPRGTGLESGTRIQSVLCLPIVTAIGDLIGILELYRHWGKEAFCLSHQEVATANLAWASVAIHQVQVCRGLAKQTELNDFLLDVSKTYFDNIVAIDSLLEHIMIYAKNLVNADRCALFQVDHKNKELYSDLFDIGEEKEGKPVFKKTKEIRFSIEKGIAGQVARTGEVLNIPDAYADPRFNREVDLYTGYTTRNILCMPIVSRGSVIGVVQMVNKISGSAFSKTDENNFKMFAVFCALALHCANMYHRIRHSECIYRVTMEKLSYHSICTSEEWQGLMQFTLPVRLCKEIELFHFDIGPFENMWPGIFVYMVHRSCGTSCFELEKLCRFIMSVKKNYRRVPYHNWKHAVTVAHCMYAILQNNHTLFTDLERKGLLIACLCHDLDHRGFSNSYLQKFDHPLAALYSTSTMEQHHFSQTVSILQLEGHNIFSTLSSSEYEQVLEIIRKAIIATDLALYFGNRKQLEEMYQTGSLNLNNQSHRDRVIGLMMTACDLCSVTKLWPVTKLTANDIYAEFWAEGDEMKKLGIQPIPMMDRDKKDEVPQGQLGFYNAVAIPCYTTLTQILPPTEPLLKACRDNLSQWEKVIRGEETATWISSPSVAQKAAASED
T1 sequence (O00408 whole entry): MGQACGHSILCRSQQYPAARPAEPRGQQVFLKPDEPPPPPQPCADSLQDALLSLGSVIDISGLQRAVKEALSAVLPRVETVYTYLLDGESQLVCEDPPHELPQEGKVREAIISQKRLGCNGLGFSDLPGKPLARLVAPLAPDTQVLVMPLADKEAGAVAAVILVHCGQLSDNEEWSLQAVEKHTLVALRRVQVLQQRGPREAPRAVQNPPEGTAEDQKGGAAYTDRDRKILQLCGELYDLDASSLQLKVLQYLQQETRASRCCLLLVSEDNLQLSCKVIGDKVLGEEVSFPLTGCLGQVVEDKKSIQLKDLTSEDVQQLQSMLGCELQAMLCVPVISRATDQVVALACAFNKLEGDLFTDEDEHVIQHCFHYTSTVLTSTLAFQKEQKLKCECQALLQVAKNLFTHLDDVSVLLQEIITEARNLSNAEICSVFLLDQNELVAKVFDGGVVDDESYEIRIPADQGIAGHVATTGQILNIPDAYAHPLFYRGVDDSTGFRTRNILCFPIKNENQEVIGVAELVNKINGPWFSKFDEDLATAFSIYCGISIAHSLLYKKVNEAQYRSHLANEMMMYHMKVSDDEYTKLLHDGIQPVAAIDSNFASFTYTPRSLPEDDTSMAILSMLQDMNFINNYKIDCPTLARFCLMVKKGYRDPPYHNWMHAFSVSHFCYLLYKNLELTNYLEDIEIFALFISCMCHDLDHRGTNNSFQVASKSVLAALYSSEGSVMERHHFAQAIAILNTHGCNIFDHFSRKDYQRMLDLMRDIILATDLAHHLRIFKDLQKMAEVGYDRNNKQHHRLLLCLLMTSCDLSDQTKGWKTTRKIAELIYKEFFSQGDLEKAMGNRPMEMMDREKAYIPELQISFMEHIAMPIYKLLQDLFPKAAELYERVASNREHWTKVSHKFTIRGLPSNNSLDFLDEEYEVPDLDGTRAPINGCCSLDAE

For the compound `O=C(c1cnc2c(F)cccc2c1)N1[C@H]2CC[C@H](c3cc(C(F)F)nc4ncnn34)[C@@H]1CC2` [Compound 309], the Emax in experiment [1] came to 100%; in experiment [2], 53%; in experiment [3] (setting [4]) it was 86%. The figures for the IC50 in experiment [1], in experiment [2] and in experiment [3] (setting [5]) were 2.95 nM, 7590 nM and 1510 nM, respectively. On PDE2A (route PO (oral)), the receptor occupancy at 10 mg/kg was 12%.
As for `COc1cc(C(=O)N2CC[C@@H](C)[C@H](c3cc(C(F)F)nc4ncnn34)C2)cc(OC)n1` [Compound 284], the Emax in experiment [1] stood at 101%; in experiment [2] it was 89%; in experiment [3] (setting [4]) it was 98%. Further, the figures for the IC50 in experiment [1], in experiment [2] and in experiment [3] (setting [5]) were 1.7 nM, 1260 nM and 55 nM, respectively. Further, at PDE2A (po, route PO (oral)), the receptor occupancy at 10 mg/kg is 16%.
`C[C@@H]1CCN(C(=O)c2ccn3cccc3c2)C[C@H]1c1cc(C(F)F)nc2ncnn12` [Compound 90]: the IC50 was 0.355 nM in experiment [1] (setting [6]), 0.355 nM in experiment [1], 214 nM in experiment [2] and 19.5 nM in experiment [3] (setting [8]). Besides, the Emax turned out to be 101% in experiment [1] (human recombinant PDE2A), 101% in experiment [1], 98% in experiment [2] and 102% in experiment [3] (setting [7]). For the same compound, the receptor occupancy at 10 mg/kg at PDE2A (sc, route SC (subcutaneous)) was 73%.
With `C[C@@H]1CCN(C(=O)c2noc3ccccc23)C[C@H]1c1cc(C(F)F)nc2ncnn12` [Compound 187], the IC50 in experiment [1] (setting [6]) was 17.8 nM; in experiment [1] it was 17.8 nM; in experiment [2] it was 3470 nM; in experiment [3] (setting [8]), 427 nM. The Emax came out at 99% in experiment [1] (human recombinant PDE2A), 99% in experiment [1], 74% in experiment [2] and 95% in experiment [3] (setting [7]). Also, at PDE2A (sc, route SC (subcutaneous)), the receptor occupancy at 10 mg/kg came out at 0%.
With `COc1cccc2c1OCC(C(=O)N1[C@H]3CC[C@H](c4cc(C(F)F)nc5ncnn45)[C@@H]1CC3)=C2` [Compound 296], the Emax is 99% in experiment [1], 93% in experiment [2] and 100% in experiment [3] (setting [4]). Further, the IC50 in experiment [1] was 0.457 nM; in experiment [2], 794 nM; in experiment [3] (setting [5]), 120 nM. On PDE2A (route PO (oral)), the receptor occupancy at 10 mg/kg worked out at 88%.
For the compound `Cc1cc(C(=O)N2CC[C@@H](C)[C@H](c3cc(C(F)F)nc4ncnn34)C2)c(F)c(C2CC2)n1` [Compound 278], the Emax in experiment [1] amounted to 99%; in experiment [2] it was 97%; in experiment [3] (setting [4]), 99%. The IC50 was 0.933 nM in experiment [1], 708 nM in experiment [2] and 145 nM in experiment [3] (setting [5]). At PDE2A (po, route PO (oral)), the receptor occupancy at 10 mg/kg was found to be 30%.
Take `C[C@@H]1CCN(C(=O)c2cnc(Cl)c(Cl)c2)C[C@H]1c1cc(C(F)F)nc2ncnn12` [Compound 64]: the IC50 in experiment [1] (setting [6]) is 1.58 nM; in experiment [1], 1.58 nM; in experiment [2], 6760 nM; in experiment [3] (setting [8]) it was 355 nM. Besides, the Emax came to 99% in experiment [1] (human recombinant PDE2A), 99% in experiment [1], 62% in experiment [2] and 96% in experiment [3] (setting [7]). The receptor occupancy at 10 mg/kg at PDE2A (po, route PO (oral)) is 7%.
As for `Cc1cc([C@@H]2CN(C(=O)c3cc4cccnc4nc3C(F)(F)F)CC[C@H]2C)n2ncnc2n1` [Compound 13], the IC50 in experiment [1] (setting [6]) is 10.5 nM; in experiment [1], 10.5 nM; in experiment [2], more than 10000 nM; in experiment [3] (setting [8]), 347 nM. Also, the Emax amounted to 100% in experiment [1] (human recombinant PDE2A), 100% in experiment [1], 38% in experiment [2] and 95% in experiment [3] (setting [7]). Also, the receptor occupancy at 10 mg/kg at PDE2A (po, route PO (oral)) turned out to be 2%.
As to `C[C@@H]1CCN(C(=O)c2ccc(F)c(OC(F)F)c2)C[C@H]1c1cc(C(F)F)nc2ncnn12` [Compound 193], the IC50 in experiment [1] (setting [6]) was 5.89 nM; in experiment [1], 5.89 nM; in experiment [2], 3470 nM; in experiment [3] (setting [8]) it was 138 nM. In addition, the maximal response (Emax) was 100% in experiment [1] (human recombinant PDE2A), 100% in experiment [1], 76% in experiment [2] and 98% in experiment [3] (setting [7]). Moreover, the receptor occupancy at 10 mg/kg was -11% on PDE2A (po, route PO (oral)) and -3% on PDE2A (sc, route SC (subcutaneous)).
Consider `O=C(c1ccc2cccn2c1)N1[C@H]2CC[C@H](c3cc(C(F)F)nc4ncnn34)[C@@H]1CC2` [Compound 291], for which the Emax was 101% in experiment [1], 86% in experiment [2] and 95% in experiment [3] (setting [4]). The IC50 in experiment [1] is 2.69 nM; in experiment [2] it was 2630 nM; in experiment [3] (setting [5]), 513 nM. Besides, the receptor occupancy at 10 mg/kg on PDE2A (route PO (oral)) was 38%.
As to `Cc1cc(C(=O)N2[C@H]3CC[C@H](c4cc(C(F)F)nc5ncnn45)[C@@H]2CC3)cc(OC(F)F)n1` [Compound 293], the Emax in experiment [1] amounted to 100%; in experiment [2], 80%; in experiment [3] (setting [4]), 90%. Also, the figures for the IC50 in experiment [1], in experiment [2] and in experiment [3] (setting [5]) were 11.2 nM, 3470 nM and 1020 nM, respectively. Besides, at PDE2A (route PO (oral)), the receptor occupancy at 10 mg/kg came out at 6%.
With `C[C@@H]1CCN(C(=O)c2cc(C3CC3)ncc2F)C[C@@]1(F)c1cc(C(F)F)nc2ncnn12` [Compound 277], the Emax was 99% in experiment [1], 14% in experiment [2] and 27% in experiment [3] (setting [4]). For the same compound, the IC50 in experiment [1] was 75.9 nM; in experiment [2], more than 10000 nM; in experiment [3] (setting [5]), more than 10000 nM. Also, on PDE2A (po, route PO (oral)), the receptor occupancy at 10 mg/kg is -4%.
Take `Cc1nc2ccc(C(=O)N3[C@H]4CC[C@H](c5cc(C(F)F)nc6ncnn56)[C@@H]3CC4)cc2s1` [Compound 368]: the Emax in experiment [1] came to 101%; in experiment [2], 61%; in experiment [3] (setting [4]), 99%. For the same compound, the IC50 in experiment [1] is 6.17 nM; in experiment [2] it was 6460 nM; in experiment [3] (setting [5]), 251 nM. The receptor occupancy at 10 mg/kg at PDE2A (route PO (oral)) stood at 11%.
For `Cc1cc(C(=O)N2CC[C@@H](C)[C@H](c3cc(C)nc4ncnn34)C2)cc(OC(F)F)n1` [Compound 275], the results for the Emax in experiment [1], in experiment [2] and in experiment [3] (setting [4]) were 100%, 92% and 100%, respectively. In addition, the IC50 in experiment [1] is 2.82 nM; in experiment [2], 977 nM; in experiment [3] (setting [5]), 28.8 nM. Also, on PDE2A (po, route PO (oral)), the receptor occupancy at 10 mg/kg was found to be 23%.
In the case of `CCCC[C@H]1CCN(C(=O)c2cc(C)nc(C)c2)C[C@@H]1c1cc(C(F)F)nc2ncnn12` (single isomer, unassigned) [Compound 46], the IC50 is 15.1 nM in experiment [1] (setting [6]), 15.1 nM in experiment [1], more than 10000 nM in experiment [2] and 2240 nM in experiment [3] (setting [8]). In addition, the Emax amounted to 100% in experiment [1] (human recombinant PDE2A), 100% in experiment [1], 5% in experiment [2] and 86% in experiment [3] (setting [7]). In addition, the receptor occupancy at 10 mg/kg on PDE2A (po, route PO (oral)) was -9%.
`Cc1cnc(Cl)cc1C(=O)N1CC[C@@H](C)[C@H](c2cc(C(F)F)nc3ncnn23)C1` [Compound 27]: the IC50 in experiment [1] (setting [6]) was 0.912 nM; in experiment [1], 0.912 nM; in experiment [2] it was more than 10000 nM; in experiment [3] (setting [8]) it was 1100 nM. Besides, the Emax in experiment [1] (human recombinant PDE2A) stood at 100%; in experiment [1], 100%; in experiment [2] it was 37%; in experiment [3] (setting [7]), 88%. Further, the receptor occupancy at 10 mg/kg at PDE2A (po, route PO (oral)) came to 34%.

A word on the Emax: it is the maximal effect, on the per cent scale that the assay sets.
